The term IC50 denotes the concentration that inhibits the measured activity by half.

Test [1] concerns the target Human Full Length PARG (Homo sapiens (Human), UniProt Q86W56). Briefly: PARG enzyme assay (TR-FRET). It counts as biochemical.
Test [2] deals with PARG in HeLa cell line. Briefly: PARG cell assay (PAR chain immunofluorescence after MMS). Type of test: cell-based. Conditions: HeLa cells. In a few lines:
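HeLa cells were dosed with compound for 1 h, then given MMS at 50 μg/mL final for a further hour. Cells were methanol-fixed, permeabilised and stained overnight at 4° C with anti-PAR monoclonal antibody. Retained nuclear PAR chains, detected by indirect immunofluorescence, indicate PARG inhibition.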

[3] abbreviates: Homo sapiens, MMS treatment, read-out: PARG Cell IC50.
[4] abbreviates: read-out: PARG Biochem IC50 Geomean.
The mark [5] stands for this setting: Homo sapiens, MMS 50 μg/mL, read-out: PARG Cell IC50 Geomean.
Where [6] appears, read: MMS treatment, read-out: PARG Cell IC50.

Read-outs that look alike come from different tables or passages of the source.

Sequence of Human Full Length PARG (Q86W56 whole entry): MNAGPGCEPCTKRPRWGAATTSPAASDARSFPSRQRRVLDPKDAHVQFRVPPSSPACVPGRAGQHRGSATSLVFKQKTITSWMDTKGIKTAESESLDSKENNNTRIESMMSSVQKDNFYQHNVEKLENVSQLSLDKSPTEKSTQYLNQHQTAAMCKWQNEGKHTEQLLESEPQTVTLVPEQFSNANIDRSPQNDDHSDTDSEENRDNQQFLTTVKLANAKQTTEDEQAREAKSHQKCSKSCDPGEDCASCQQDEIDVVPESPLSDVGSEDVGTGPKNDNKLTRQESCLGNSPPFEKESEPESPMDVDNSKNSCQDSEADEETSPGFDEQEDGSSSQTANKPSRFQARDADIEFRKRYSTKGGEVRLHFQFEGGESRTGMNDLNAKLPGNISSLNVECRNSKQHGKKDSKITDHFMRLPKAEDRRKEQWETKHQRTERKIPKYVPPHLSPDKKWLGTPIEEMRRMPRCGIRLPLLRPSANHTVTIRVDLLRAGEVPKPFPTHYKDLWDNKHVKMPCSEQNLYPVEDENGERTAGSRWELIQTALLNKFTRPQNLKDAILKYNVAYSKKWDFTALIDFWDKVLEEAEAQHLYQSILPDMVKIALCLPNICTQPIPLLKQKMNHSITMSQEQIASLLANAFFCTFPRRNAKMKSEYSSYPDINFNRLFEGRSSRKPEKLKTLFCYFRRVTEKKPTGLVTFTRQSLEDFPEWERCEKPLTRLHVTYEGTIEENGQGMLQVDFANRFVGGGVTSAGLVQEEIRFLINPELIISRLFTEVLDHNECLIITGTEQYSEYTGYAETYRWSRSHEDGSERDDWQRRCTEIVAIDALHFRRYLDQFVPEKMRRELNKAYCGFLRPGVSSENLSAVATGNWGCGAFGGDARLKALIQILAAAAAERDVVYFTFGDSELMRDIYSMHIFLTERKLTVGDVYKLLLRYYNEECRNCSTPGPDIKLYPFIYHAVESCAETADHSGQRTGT

In the case of `Cn1cc(Cn2c(=O)c3cc(S(=O)(=O)NC4(CF)CC4)ccc3n(Cc3cnco3)c2=O)cn1` [Example 564, N-[1-(Fluoromethyl)cyclopropyl]-3-[(1-methylpyrazol-4-yl)methyl]-1-(oxazol-5-ylmethyl)-2,4-dioxo-quinazoline-6-sulfonamide], the IC50 in test [1] (read-out: PARG Biochem IC50) came out at 0.038 µM; in test [2] (setting [3]), 0.127 µM.

On to `CN(C)C(=O)c1cc(S(=O)(=O)NC2(C)CC2)cc2c(=O)n(Cc3cnn(C)c3)c(=O)[nH]c12` [Example 449, N,N-Dimethyl-6-[(1-methylcyclopropyl)sulfamoyl]-3-[(1-methylpyrazol-4-yl)methyl]-2,4-dioxo-1H-quinazoline-8-carboxamide], for which the results for the IC50 in test [1] (read-out: PARG Biochem IC50) and in test [2] (setting [3]) were 5.78 µM and 13.2 µM, respectively.

Turning to `Cc1nc(C)c(Cn2c(=O)n(C)c(=O)c3cc(S(=O)(=O)NC4CC4)ccc32)s1` [Example 201], the IC50 amounted to 0.19 µM in test [1] (setting [4]) and 0.224 µM in test [2] (setting [5]).

For `Cc1cc(Cn2c(=O)c3cc(S(=O)(=O)NC4(CF)CC4)ccc3n(Cc3cnn(C)c3)c2=O)on1` [Example 555, N-[1-(Fluoromethyl)cyclopropyl]-3-[(3-methylisoxazol-5-yl)methyl]-1-[(1-methylpyrazol-4-yl)methyl]-2,4-dioxo-quinazoline-6-sulfonamide], the IC50 in test [1] (read-out: PARG Biochem IC50) came out at 0.049 µM; in test [2] (setting [3]) it was 0.086 µM.

As to `Cc1cc(Cn2c(=O)n(Cc3cnn(C)c3)c(=O)c3cc(S(=O)(=O)NC4(C)CC4)c(F)cc32)n(C)n1` [Example 392, 1-[(2,5-Dimethylpyrazol-3-yl)methyl]-7-fluoro-N-(1-methylcyclopropyl)-3-[(1-methylpyrazol-4-yl)methyl]-2,4-dioxo-quinazoline-6-sulfonamide], the half-inhibitory concentration (IC50) in test [1] (setting [4]) stood at 0.047 µM; in test [2] (setting [5]) it was 0.113 µM.

As to `Cn1cc(Cn2c(=O)c3cc(S(=O)(=O)NC4(C#N)CC4)ccc3n(Cc3ccc(F)cc3)c2=O)cn1` [Example 358], the values for the concentration for half-maximal inhibition (IC50) in test [1] (setting [4]) and in test [2] (setting [5]) were 0.059 µM and 0.346 µM, respectively.

For the compound `CC1(NS(=O)(=O)c2ccc3[nH]c(=O)n(CCC#N)c(=O)c3c2)CC1` [Example 496, 3-(2-Cyanoethyl)-N-(1-methylcyclopropyl)-2,4-dioxo-1H-quinazoline-6-sulfonamide], the figures for the 50% inhibitory concentration (IC50) in test [1] (read-out: PARG Biochem IC50) and in test [2] (setting [6]) were 2.67 µM and 5.49 µM, respectively.

With `Cn1cc(Cn2c(=O)c3cc(S(=O)(=O)NC4(C)CC4)ccc3n(CC3CC(F)(F)C3)c2=O)cn1` [Example 436, 1-[(3,3-Difluorocyclobutyl)methyl]-N-(1-methylcyclopropyl)-3-[(1-methylpyrazol-4-yl)methyl]-2,4-dioxo-quinazoline-6-sulfonamide], the IC50 is 0.118 µM in test [1] (read-out: PARG Biochem IC50) and 0.07 µM in test [2] (setting [3]).

On to `Cc1cc(Cn2c(=O)c3cc(S(=O)(=O)NC4(C)CC4)ccc3n(CC3(C)CCC3)c2=O)on1` [Example 467, 1-[(1-Methylcyclobutyl)methyl]-N-(1-methylcyclopropyl)-3-[(3-methylisoxazol-5-yl)methyl]-2,4-dioxo-quinazoline-6-sulfonamide], for which the concentration for half-maximal inhibition (IC50) was determined as 0.361 µM in test [1] (read-out: PARG Biochem IC50) and 0.214 µM in test [2] (setting [3]).

Consider `Cc1cc(Cn2c(=O)n(Cc3cnn(C)c3)c(=O)c3cc(S(=O)(=O)NC4(C)CC4)ccc32)on1` [Example 379], for which the half-maximal inhibitory concentration (IC50) in test [1] (setting [4]) is 0.035 µM; in test [2] (setting [5]) it was 0.077 µM.

Regarding `Cn1cc(Cn2c(=O)c3cc(S(=O)(=O)NC4(C#N)CC4)ccc3n(CC3COC3)c2=O)cn1` [Example 354], the IC50 stood at 0.164 µM in test [1] (setting [4]) and 18 µM in test [2] (MMS 50 μg/mL, read-out: PARG Cell IC50 Geomean).

`Cn1cc(Cn2c(=O)c3cc(S(=O)(=O)NC4(C#N)CC4)ccc3n(CC3(C)COC3)c2=O)cn1` [Example 376]: the IC50 was 0.124 µM in test [1] (setting [4]) and 14.3 µM in test [2] (setting [5]).

For the compound `CCn1c(=O)n(Cc2cnn(C)c2)c(=O)c2cc(S(=O)(=O)NC3(C#N)CC3)ccc21` [Example 347], the values for the IC50 in test [1] (setting [4]) and in test [2] (setting [5]) were 0.21 µM and 0.916 µM, respectively.

In the case of `Cn1cc(Cn2c(=O)c3cc(S(=O)(=O)NC4(C)CC4)ccc3n(C(F)F)c2=O)cn1` [Example 606, 1-(Difluoromethyl)-N-(1-methylcyclopropyl)-3-[(1-methylpyrazol-4-yl)methyl]-2,4-dioxo-quinazoline-6-sulfonamide], the values for the 50% inhibitory concentration (IC50) in test [1] (read-out: PARG Biochem IC50) and in test [2] (setting [3]) were 1.47 µM and 0.248 µM, respectively.

Take `Cc1nc(C)c(Cn2c(=O)n(C)c(=O)c3cc(S(=O)(=O)NC4(C#N)CC4)ccc32)s1` [Example 204]: the IC50 is 0.118 µM in test [1] (setting [4]) and 0.646 µM in test [2] (setting [5]).

For `Cn1cc(Cc2cc3cc(S(=O)(=O)NC4(C)CC4)ccc3[nH]c2=O)cn1` [Example 486, N-(1-Methylcyclopropyl)-3-[(1-methylpyrazol-4-yl)methyl]-2-oxo-1H-quinoline-6-sulfonamide], the IC50 in test [1] (read-out: PARG Biochem IC50) was found to be 1.62 µM; in test [2] (setting [3]), 2.29 µM.

On to `Cc1cc(Cn2c(=O)c3cc(S(=O)(=O)NC4(C)CC4)ccc3n(C3COC3)c2=O)on1` [Example 339], for which the IC50 in test [1] (setting [4]) was determined as 0.479 µM; in test [2] (setting [5]), 0.487 µM.

On to `Cc1ncc(Cn2c(=O)n(Cc3cnn(C)c3)c(=O)c3cc(S(=O)(=O)NC4(CF)CC4)ccc32)o1` [Example 548, N-[1-(Fluoromethyl)cyclopropyl]-1-[(2-methyloxazol-5-yl)methyl]-3-[(1-methylpyrazol-4-yl)methyl]-2,4-dioxo-quinazoline-6-sulfonamide], for which the results for the IC50 in test [1] (read-out: PARG Biochem IC50) and in test [2] (setting [3]) were 0.034 µM and 0.063 µM, respectively.

For `CCn1cc(Cn2c(=O)c3cc(S(=O)(=O)NC4(C)CC4)ccc3n(C)c2=O)cn1` [Example 181], the half-inhibitory concentration (IC50) in test [1] (setting [4]) was found to be 0.447 µM; in test [2] (setting [5]) it was 0.68 µM.

`Cc1cc(Cn2c(=O)c3cc(S(=O)(=O)NC4(C)CC4)ccc3n(CCN(C)C)c2=O)on1` [Example 246]: the IC50 in test [1] (setting [4]) stood at 0.469 µM; in test [2] (setting [5]) it was 0.431 µM.

As to `Cc1ncc(Cn2c(=O)c3cc(S(=O)(=O)NC4(C)CC4)ccc3n(Cc3cc(C(F)(F)F)nn3C)c2=O)s1` [Example 231], the half-inhibitory concentration (IC50) in test [1] (setting [4]) turned out to be 0.055 µM; in test [2] (setting [5]), 0.047 µM.

Take `Cn1cc(Cn2c(=O)c3cc(S(=O)(=O)NC4(C)CC4)ccc3n(CC(F)F)c2=O)cn1` [Example 599, 1-(2,2-Difluoroethyl)-N-(1-methylcyclopropyl)-3-[(1-methylpyrazol-4-yl)methyl]-2,4-dioxo-quinazoline-6-sulfonamide]: the IC50 in test [1] (read-out: PARG Biochem IC50) turned out to be 0.263 µM; in test [2] (setting [3]), 0.093 µM.

With `C#CCn1c(=O)n(Cc2cnc(C)s2)c(=O)c2cc(S(=O)(=O)NC3(C#N)CC3)ccc21` [Example 403, N-(1-Cyanocyclopropyl)-3-[(2-methylthiazol-5-yl)methyl]-2,4-dioxo-1-prop-2-ynyl-quinazoline-6-sulfonamide], the IC50 in test [1] (read-out: PARG Biochem IC50) worked out at 0.084 µM; in test [2] (setting [6]), 0.265 µM.

`Cc1cc(Cn2c(=O)c3cc(S(=O)(=O)NC4(C)CC4)ccc3n(Cc3cc(C)no3)c2=O)on1` [Example 208]: the IC50 in test [1] (setting [4]) came to 0.036 µM; in test [2] (setting [5]) it was 0.069 µM.

Consider `Cn1c(=O)n(Cc2cn[nH]c2)c(=O)c2cc(S(=O)(=O)NC3(C)CC3)ccc21` [Example 183, 1-methyl-N-(1-methylcyclopropyl)-2,4-dioxo-3-(1H-pyrazol-4-ylmethyl)quinazoline-6-sulfonamide], for which the concentration for half-maximal inhibition (IC50) in test [1] (setting [4]) worked out at 0.379 µM; in test [2] (setting [5]), 0.931 µM.

As to `Cc1ncc(Cn2c(=O)c3cc(S(=O)(=O)NC4(C)CC4)ccc3n(CC3CC(C)(C)C3)c2=O)s1` [Example 478, 1-[(3,3-dimethylcyclobutyl)methyl]-N-(1-methylcyclopropyl)-3-[(2-methylthiazol-5-yl)methyl]-2,4-dioxo-quinazoline-6-sulfonamide], the IC50 was 0.109 µM in test [1] (read-out: PARG Biochem IC50) and 0.121 µM in test [2] (setting [3]).
